Paper PMC11790914, “Chemogenomics for steroid hormone receptors (NR3)” (Communications Chemistry, 2025)
“And” between values parts separate entries of the source, which are not always exact repeats. Equal entries are not always repeated.

How the values were obtained:
HEK293T cells [1] = experiment: Cytotoxicity: necrosis induction (red fluorescent dye for permeable plasma membranes); format: cell-based; conditions: 1 µM, 24 h, necrotic cell count normalized to 0.1% DMSO, single replicates;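 further: compounds applied in DMEM high glucose with 0.1% FCS and 0.1% DMSO, necrotic HEK293T cells counted by red staining of cells whose plasma membranes had become permeable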
ABL1 = target: T1, ABL1 (Homo sapiens, UniProt P00519); experiment: Liability panel screening by DSF: ABL1; format: binding; conditions: DSF, 20 µM, n=2; read-out: Mean ΔTM ABL1
T1 construct: made in house
Summary of the method: (§1)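 Recombinant protein at 2 µM in 10 mM HEPES pH 7.5 with 500 mM NaCl was mixed with SYPRO Orange (1:1000) and heated at 3 °C/min up to 85 °C. Tm was taken as the Boltzmann-fit inflection point. Shifts are ∆Tm in K from technical duplicates.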

AURKA = target: T2, AURKA (Homo sapiens, UniProt O14965); experiment: Liability panel screening by DSF: AURKA; format: binding; conditions: DSF, 20 µM, n=2; read-out: Mean ΔTM AURKA
T2 construct: made in house
T2 sequence (O14965 1-403): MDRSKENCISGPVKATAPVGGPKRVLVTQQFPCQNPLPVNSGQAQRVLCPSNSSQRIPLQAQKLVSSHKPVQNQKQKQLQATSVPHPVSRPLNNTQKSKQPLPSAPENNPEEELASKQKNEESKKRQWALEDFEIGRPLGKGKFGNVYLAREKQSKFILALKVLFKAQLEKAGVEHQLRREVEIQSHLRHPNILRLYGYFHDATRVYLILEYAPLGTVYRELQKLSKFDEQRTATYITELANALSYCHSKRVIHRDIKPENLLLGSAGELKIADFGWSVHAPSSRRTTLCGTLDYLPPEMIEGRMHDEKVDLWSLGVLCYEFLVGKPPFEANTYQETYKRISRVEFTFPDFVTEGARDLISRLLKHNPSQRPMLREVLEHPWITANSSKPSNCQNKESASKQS
Summary of the method: as §1

CDK2 = target: T3, CDK2 (Homo sapiens, UniProt P24941); experiment: Liability panel screening by DSF: CDK2; format: binding; conditions: DSF, 20 µM, n=2; read-out: Mean ΔTM CDK2
T3 construct: made in house
Summary of the method: as §1

FGFR3 = target: T4, FGFR3 (Homo sapiens, UniProt P22607); experiment: Liability panel screening by DSF: FGFR3; format: binding; conditions: DSF, 20 µM, n=2; read-out: Mean ΔTM FGFR3
T4 construct: made in house
Summary of the method: as §1

GSK3B = target: T5, GSK3B (Homo sapiens, UniProt P49841); experiment: Liability panel screening by DSF: GSK3B; format: binding; conditions: DSF, 20 µM, n=2; read-out: Mean ΔTM GSK3B
T5 construct: made in house

BRD4 = target: T6, BRD4 (Homo sapiens, UniProt O60885); experiment: Liability panel screening by DSF: BRD4; format: binding; conditions: DSF, 20 µM, n=2; read-out: Mean ΔTM BRD4
T6 construct: This panel comprised ten highly ligandable kinases and bromodomains; made in house
Summary of the method: as §1

BRPF1 = target: T7, BRPF1 (Homo sapiens, UniProt P55201); experiment: Liability panel screening by DSF: BRPF1; format: binding; conditions: read-out: Mean ΔTM BRPF1
T7 construct: This panel comprised ten highly ligandable kinases and bromodomains; made in house
T7 sequence (P55201 628-732 limits assumed): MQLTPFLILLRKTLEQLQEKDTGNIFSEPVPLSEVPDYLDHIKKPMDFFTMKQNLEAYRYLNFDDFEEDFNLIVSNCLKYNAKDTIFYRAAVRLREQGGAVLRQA
Summary of the method: as §1

CSNK1D = target: T8, CSNK1D (Homo sapiens, UniProt P48730); experiment: Liability panel screening by DSF: CSNK1D; format: binding; conditions: DSF, 20 µM, n=2; read-out: Mean ΔTM CSNK1D
T8 construct: made in house
Summary of the method: as §1

MAPK1 = target: T9, MAPK1 (Homo sapiens, UniProt P28482); experiment: Liability panel screening by DSF: MAPK1; format: binding; conditions: DSF, 20 µM, n=2; read-out: Mean ΔTM MAPK1
T9 construct: made in house
Summary of the method: as §1

TRIM24 = target: T10, TRIM24 (Homo sapiens, UniProt O15164); experiment: Liability panel screening by DSF: TRIM24; format: binding; conditions: DSF, 20 µM, n=2; read-out: Mean ΔTM TRIM24
T10 construct: This panel comprised ten highly ligandable kinases and bromodomains; made in house
T10 sequence (O15164 899-1004 limits assumed): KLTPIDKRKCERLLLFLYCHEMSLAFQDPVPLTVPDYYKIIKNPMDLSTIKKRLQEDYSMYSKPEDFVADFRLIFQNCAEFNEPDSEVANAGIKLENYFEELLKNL
Summary of the method: as §1

[2] = tested on: NF-κB activity in HEK293 NF-κB reporter cells; experiment: NF-kB activity assay (GFP reporter, ionomycin/PMA); format: cell-based; conditions: n=3
Summary of the method: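 HEK293 NF-κB GFP reporter cells given compound in 0.1% DMSO for 4 h, then stimulated with ionomycin 100 ng/mL plus PMA 10 ng/mL. Imaged every 90 min over 24 h; GFP-positive cell count normalized to confluence, three independent biological replicates.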

[3] = tested on: ATF6 activity in Hela ATF6 reporter cells; experiment: Endoplasmic reticulum stress assay (ATF6 Renilla luciferase reporter, tunicamycin); format: cell-based; conditions: Homo sapiens, HeLa, 1 µM, single replicates n=1 to n=5; read-out: ER stress [rel. ATF6 activity]
Summary of the method: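 HeLa ATF6 Renilla reporter cells were pretreated 4 h with compounds in 0.1% DMSO, then stimulated with tunicamycin (100 ng/mL) for 18 h. Renilla luminescence (DualGlo) was normalized to 0.1% DMSO control; five independent experiments.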

NR3C2 (MR) = conditions: (lit.); ref Supplementary Table 1; read-out: Potency [nM] EC50, NR3C2 (MR); cited from earlier work
HEK293T cells [4] = experiment: Cytotoxicity: metabolic activity (WST-8 / CCK-8 assay); conditions: 1 µM; HEK293T, 24 h; WST-8; normalized to 0.1% DMSO; single replicates
HEK293T cells [5] = experiment: Cytotoxicity: growth-rate (change in confluence over 24 h); conditions: 1 µM, normalized to 0.1% DMSO control, single replicates (n=1...)
HEK293T cells [6] = experiment: Cytotoxicity: apoptosis induction (caspase-3/7 DEVD fluorogenic DNA dye); conditions: 1 µM; HEK293T, 24 h; apoptotic cell count normalized to 0.1% DMSO; single replicates

T4 sequence (P22607 23-806, species assumed): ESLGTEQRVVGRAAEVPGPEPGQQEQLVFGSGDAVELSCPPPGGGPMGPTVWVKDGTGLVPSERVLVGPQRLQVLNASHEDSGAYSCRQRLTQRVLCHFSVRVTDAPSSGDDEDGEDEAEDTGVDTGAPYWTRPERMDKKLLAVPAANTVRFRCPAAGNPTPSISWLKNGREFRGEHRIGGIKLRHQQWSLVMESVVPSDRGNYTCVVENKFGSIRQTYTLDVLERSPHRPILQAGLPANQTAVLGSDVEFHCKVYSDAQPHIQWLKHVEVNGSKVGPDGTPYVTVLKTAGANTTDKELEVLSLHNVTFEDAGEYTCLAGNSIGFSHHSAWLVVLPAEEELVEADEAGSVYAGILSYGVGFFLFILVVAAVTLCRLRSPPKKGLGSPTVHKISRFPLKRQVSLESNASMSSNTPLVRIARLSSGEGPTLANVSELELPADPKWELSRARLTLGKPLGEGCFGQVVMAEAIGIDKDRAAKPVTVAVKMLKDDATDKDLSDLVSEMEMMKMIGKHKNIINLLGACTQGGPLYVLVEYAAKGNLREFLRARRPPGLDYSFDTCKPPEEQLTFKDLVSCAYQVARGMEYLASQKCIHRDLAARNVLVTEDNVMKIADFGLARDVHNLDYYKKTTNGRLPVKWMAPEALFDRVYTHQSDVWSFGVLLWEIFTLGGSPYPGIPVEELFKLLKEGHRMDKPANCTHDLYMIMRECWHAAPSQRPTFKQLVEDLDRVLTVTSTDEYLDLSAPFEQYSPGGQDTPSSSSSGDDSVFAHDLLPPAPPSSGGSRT
T5 sequence (P49841 whole entry, species assumed): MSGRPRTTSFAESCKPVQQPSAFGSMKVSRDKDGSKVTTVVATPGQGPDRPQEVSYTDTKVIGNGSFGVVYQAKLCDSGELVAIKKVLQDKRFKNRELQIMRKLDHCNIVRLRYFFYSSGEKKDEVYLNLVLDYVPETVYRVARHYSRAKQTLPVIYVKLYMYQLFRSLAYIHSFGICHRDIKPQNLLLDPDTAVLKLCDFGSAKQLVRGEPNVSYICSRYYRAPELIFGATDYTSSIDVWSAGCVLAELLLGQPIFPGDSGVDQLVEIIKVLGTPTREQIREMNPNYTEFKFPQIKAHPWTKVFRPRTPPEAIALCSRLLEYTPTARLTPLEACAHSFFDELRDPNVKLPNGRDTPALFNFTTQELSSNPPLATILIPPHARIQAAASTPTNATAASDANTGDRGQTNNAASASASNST
T1 sequence (P00519 whole entry, species assumed): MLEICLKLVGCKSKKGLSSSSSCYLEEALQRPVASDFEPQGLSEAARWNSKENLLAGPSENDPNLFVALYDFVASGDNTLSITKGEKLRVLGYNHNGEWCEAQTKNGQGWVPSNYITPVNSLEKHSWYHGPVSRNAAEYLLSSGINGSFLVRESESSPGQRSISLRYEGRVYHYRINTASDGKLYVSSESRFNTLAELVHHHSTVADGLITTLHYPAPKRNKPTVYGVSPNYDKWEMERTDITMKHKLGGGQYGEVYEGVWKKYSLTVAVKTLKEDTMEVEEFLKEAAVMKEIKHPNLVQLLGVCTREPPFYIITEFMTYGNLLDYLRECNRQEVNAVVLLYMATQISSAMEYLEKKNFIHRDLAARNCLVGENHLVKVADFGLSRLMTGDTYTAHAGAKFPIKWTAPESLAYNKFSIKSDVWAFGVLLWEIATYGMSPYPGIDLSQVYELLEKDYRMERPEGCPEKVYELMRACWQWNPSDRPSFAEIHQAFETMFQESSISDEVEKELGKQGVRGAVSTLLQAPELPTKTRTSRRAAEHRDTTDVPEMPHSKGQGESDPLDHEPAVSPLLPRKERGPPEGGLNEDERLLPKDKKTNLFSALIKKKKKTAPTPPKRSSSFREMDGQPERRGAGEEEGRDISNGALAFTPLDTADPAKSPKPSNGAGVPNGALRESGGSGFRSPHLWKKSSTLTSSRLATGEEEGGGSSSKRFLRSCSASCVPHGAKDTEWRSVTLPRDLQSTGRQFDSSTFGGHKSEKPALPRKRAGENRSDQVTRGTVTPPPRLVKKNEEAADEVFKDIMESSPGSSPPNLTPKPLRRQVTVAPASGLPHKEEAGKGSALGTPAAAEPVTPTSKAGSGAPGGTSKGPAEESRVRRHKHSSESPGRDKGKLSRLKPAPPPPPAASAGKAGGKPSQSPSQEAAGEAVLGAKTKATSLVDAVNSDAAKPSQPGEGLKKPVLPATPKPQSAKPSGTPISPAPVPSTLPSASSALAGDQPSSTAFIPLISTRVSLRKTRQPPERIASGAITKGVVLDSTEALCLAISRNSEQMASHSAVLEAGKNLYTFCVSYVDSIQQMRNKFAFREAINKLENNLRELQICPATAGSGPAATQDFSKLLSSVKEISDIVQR
T8 sequence (P48730 whole entry, species assumed): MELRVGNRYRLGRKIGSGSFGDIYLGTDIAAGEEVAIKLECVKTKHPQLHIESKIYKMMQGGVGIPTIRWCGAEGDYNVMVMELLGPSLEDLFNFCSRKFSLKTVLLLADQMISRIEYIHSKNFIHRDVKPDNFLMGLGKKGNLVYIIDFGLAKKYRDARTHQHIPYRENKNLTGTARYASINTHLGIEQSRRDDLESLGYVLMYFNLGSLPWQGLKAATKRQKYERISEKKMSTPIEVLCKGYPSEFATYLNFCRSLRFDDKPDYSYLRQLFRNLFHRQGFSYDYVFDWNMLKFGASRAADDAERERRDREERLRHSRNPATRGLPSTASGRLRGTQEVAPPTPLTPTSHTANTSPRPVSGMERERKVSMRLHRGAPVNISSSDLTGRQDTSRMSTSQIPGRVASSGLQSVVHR
T9 sequence (P28482 whole entry, species assumed): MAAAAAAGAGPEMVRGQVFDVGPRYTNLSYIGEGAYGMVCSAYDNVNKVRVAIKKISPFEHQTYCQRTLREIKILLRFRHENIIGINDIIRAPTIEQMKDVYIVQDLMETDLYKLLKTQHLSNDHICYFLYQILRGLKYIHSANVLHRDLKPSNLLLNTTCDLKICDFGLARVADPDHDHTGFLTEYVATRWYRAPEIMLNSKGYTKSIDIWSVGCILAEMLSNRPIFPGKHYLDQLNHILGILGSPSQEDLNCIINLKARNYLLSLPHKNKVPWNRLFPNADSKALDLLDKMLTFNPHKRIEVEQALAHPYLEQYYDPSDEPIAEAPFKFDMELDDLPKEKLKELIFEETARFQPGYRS

In the case of `C[C@]12CCC(=O)C=C1CC[C@@H]1[C@@H]2[C@@H](O)C[C@]2(C=O)[C@@H](C(=O)CO)CC[C@@H]12` [Aldosterone], the “Necrosis induction [NI]” value (HEK293T cells [1]) is reported as 0.75 and 0.67 and 0.68 and 0.72, the ΔTm at 20 µM (ABL1) is reported as -0.26 °C and the ΔTm at 20 µM (AURKA) is reported as 0.1 °C. The ΔTm at 20 µM (CDK2) was -0.06 °C, the ΔTm at 20 µM (FGFR3) was -0.16 °C and the ΔTm at 20 µM (GSK3B) was -0.23 °C. It also gave a ΔTm at 20 µM (BRD4) of 0.17 °C, a ΔTm at 20 µM (BRPF1) of -1.02 °C and a ΔTm at 20 µM (CSNK1D) of -2.48e-05 °C. For the same compound, the ΔTm at 20 µM (MAPK1) was 0.17 °C, the ΔTm at 20 µM (TRIM24) was -0.91 °C and the “Mean NFκB response” value ([2]; 1 µM, 1,5 h) was 2799.98 GFP+-cells/confluence ∙ 1000. For the same compound, the “Mean NFκB response” value ([2]; 1 µM, 4,5 h) was 3728.04 GFP+-cells/confluence ∙ 1000, the “Mean NFκB response” value ([2]; 1 µM, 7,5 h) was 7006.53 GFP+-cells/confluence ∙ 1000 and the “Mean NFκB response” value ([2]; 1 µM, 10,5 h) was 14006.47 GFP+-cells/confluence ∙ 1000. For the same compound, the “Mean NFκB response” value ([2]; 1 µM, 13,5 h) was 19614.51 GFP+-cells/confluence ∙ 1000, the “Mean NFκB response” value ([2]; 1 µM, 16,6 h) was 24279.62 GFP+-cells/confluence ∙ 1000 and the “Mean NFκB response” value ([2]; 1 µM, 19,5 h) was 27366.03 GFP+-cells/confluence ∙ 1000. The “Mean NFκB response” value ([2]; 1 µM, 22,5 h) was 29896.67 GFP+-cells/confluence ∙ 1000, the “Mean NFκB response” value ([2]; 1 µM, 3 h) was 3180.38 GFP+-cells/confluence ∙ 1000 and the “Mean NFκB response” value ([2]; 1 µM, 6 h) was 4651.42 GFP+-cells/confluence ∙ 1000. For the same compound, the “Mean NFκB response” value ([2]; 1 µM, 9 h) was 10914.09 GFP+-cells/confluence ∙ 1000, the “Mean NFκB response” value ([2]; 1 µM, 12 h) was 17161.43 GFP+-cells/confluence ∙ 1000 and the “Mean NFκB response” value ([2]; 1 µM, 15 h) was 22438.14 GFP+-cells/confluence ∙ 1000. For the same compound, the “Mean NFκB response” value ([2]; 1 µM, 18 h) was 25981.67 GFP+-cells/confluence ∙ 1000, the “Mean NFκB response” value ([2]; 1 µM, 21 h) was 28773.18 GFP+-cells/confluence ∙ 1000 and the “Mean NFκB response” value ([2]; 1 µM, 24 h) was 30941.17 GFP+-cells/confluence ∙ 1000. For the same compound, the activity at 1 µM [3] was 80%, the EC50 (NR3C2 (MR)) was 0.34 ± 0.04 nM and the “Metabolic activity [MA]” value (HEK293T cells [4]) was 1.07 (2×) and 1.02 and 0.98 and 1.08 and 0.99 (2×) and 0.93. For the same compound, the “Growth rate [GR]” value (HEK293T cells [5]) was 0.87 and 0.57 and 0.92 and 1.28 and 0.95 and 0.82 and 0.93 and 0.54 and 0.81 and -0.31 and the “Apoptosis induction [AI]” value (HEK293T cells [6]) was 0.40 and 0.56 and 0.73 and 0.75 and 0.46 and 0.86.
